Results published in patent publication US8481016B2, “Method for inhibition of potential-dependent cation channel” (Kao Corporation, priority 2010, dated 2013).

Legend:
[1] = test system: potential-dependent cation channel of isolated olfactory cells; experiment: Test for measuring potential-dependent cation channel activity (whole-cell recording, inward current on depolarization); type: cell-based, Japanese fire belly newt (Cynops pyrrhogaster); conditions: for Inhibition ratio (%) (inward current suppression ratio): depolarization -90 mV to -20 mV, newt olfactory cells; for Channel suppression ratio (inward current suppression ratio): Reference Example, concentration not given
Procedure: 1. Isolation of Olfactory Cells
To briefly explain the method of isolation, each newt which had been hibernated in ice-water was double-pithed, and the cranium was cut open to remove olfactory mucosa. The removed olfactory mucosa was incubated in a 0.1% collagenase solution at 37° C. for 5 minutes, and collagenase was washed off. Subsequently, the mucosal tissue was crushed by means of a glass pipette to thereby isolate cells. As the normal Ringer's solution, a solution of 110 mM NaCl, 3.7 mM KCl, 3 mM CaCl2, 1 mM MgCl2, 15 mM glucose, 1 mM sodium pyruvate, 10 mM HEPES, and 0.001% (w/v) Phenol Red, at pH 7.4 (adjusted with NaOH), was used.
2. Measurement of Electrical Activity [A. Setting] […] A borosilicate glass capillary (diameter: 1.2 mm) was used as the electrode, and the electrode was produced using a puller for electrode fabrication (P-97, Sutter Instrument Co.) (electrode resistance: approximately 6.0 MΩ). An electrode filling solution and a silver-silver chloride wire were inserted into the electrode, the silver-silver chloride wire was connected to a patch clamp amplifier (EPC10, HEKA), and thus fixation of the membrane potential and depolarization simulation were performed. […] The recording of the membrane current was performed using a computer (IBM-compatible) connected to the patch clamp amplifier (sampling frequency: 1 kHz), and Patch Master software (HEKA) was used for the measurement and analysis. The addition (spraying) of a test substance was carried out using a pressure controller.
[B. Procedure] In order to investigate the effect of each of the test substances described above (see Table 1) on the potential-dependent cation channel activity, the membrane potential of the isolated olfactory cells was fixed at −90 mV, and the membrane potential was depolarized to −20 mV for 20 milliseconds at an interval of 200 milliseconds. The peak intensity of the inward current produced immediately after depolarization (FIG. 1. |a|=[Inward current value produced immediately after depolarization]−[baseline value]) was measured. While depolarization stimulation was continuously repeated, the test substance was adjusted to the various concentrations indicated in Table 1 using normal Ringer's solution, and the mixture was added to the olfactory cells by spraying the mixture (for 650 milliseconds, pressure: 100 kPa) through a glass pipette (tip diameter: 1 μm) that was placed such that the tip of the pipette was located in the vicinity (10 μm) of the olfactory cells . The change in the inward current (FIG. 1, |b|=[Inward current value when the peak intensity was most suppressed]−[baseline value]) resulting from the spraying was investigated. This spraying was carried out continuous for 5 times. Furthermore, the average value A of the peak intensities (a) of the inward current produced by the depolarization immediately before the addition of an extract, and the average value B of the peak intensities (b) of the inward current produced by the depolarization immediately after the addition of an extract were calculated.
The CNG channel current can be easily distinguished from the potential-dependent channel current, in terms of the intensity, peak shape, duration and the like.
The “inward current suppression ratio (%)” was calculated from the “B: average value of the inward current value (b) when the peak intensity was most suppressed” and the “A: average value of the inward current value (a) produced immediately after the depolarization immediately before the addition of an extract,” as shown in the following formula.

[2] = Olfaction masking test by sensory evaluation, hexanoic acid as malodorous substance; type: in vivo, human beings; conditions: 10 panelists, hexanoic acid 10%, 20 μL, same cotton ball
Procedure: An olfaction masking test based on sensory evaluation was carried out with 10 panelists. […] The cotton ball was placed in a 50-mL container, and the malodorous substance was volatilized overnight at room temperature.
The evaluation was carried out such that each panelist smelled the odor in the container, and determined the strength of masking of hexanoic acid by the addition of the adamantane derivatives. The intensity of odor of simple hexanoic acid was set to 5.0, which is an intermediate point among the 21 grades of evaluation criteria (0: no odor, 10: strong odor).

[3] = Sensory evaluation olfaction masking test, isovaleric acid as malodorous substance; type: in vivo; conditions: 20 panelists; isovaleric acid 1%, 2 μL; test solution 0.1%, 4 μL; six-grade score 0 (masking not achieved) to 5 (perfect masking)
Procedure: [Sensory evaluation test]
An olfaction masking test based on sensory evaluation was carried out with 20 panelists.
2 μL of the malodorous substance and 4 μL of a test solution of each of the test compounds indicated in Table 3 at a concentration of 0.1% were impregnated into separate cotton balls (diameter: 1 cm), and the substances were volatilized for 12 hours at room temperature in each of separate 50-mL injection syringes. The isovaleric acid and test compound volatilized in the syringe were injected into a PP container (capacity: 500 mL) with a cap and were mixed in the container.
The evaluation was carried out such that each panelist slightly opened the cap of the PP container and smelled the odor in the container, and the panelist determined the masking strength for the odor of isovaleric acid.
The evaluation of the masking strength was carried out based on the following six-grade masking scores, based on a comparison with the intensity of odor in a PP container to which only volatilized isovaleric acid had been injected.
0: Masking is not achieved.
1: A very slight masking effect is recognized.
2: A slight masking effect is recognized.
4: Masking is almost achieved.
5: Perfect masking is achieved.

Row | Compound | Channel suppression ratio (inward current suppression ratio) [1] [%] | other results
1 | CC(N)C12CC3CC(CC(C3)C1)C2.Cl (centres unmarked) [Example 11] | – | Inhibition ratio (%) (inward current suppression ratio) ([1]; evaluation concentration 0.01%): 78.9%
2 | CCC(O)COC1CCCCC1C(C)(C)C (centres unmarked) [AMBER CORE] | 27.1 | –
3 | CCOC(=O)C(C)C1CCCCC1 (centres unmarked) [POIRENATE] | 48.7 | –
4 | CC(C=O)Cc1ccc(C(C)(C)C)cc1 (centres unmarked) [LILIAL] | 57.9 | –
5 | C=CC(C)CCCC(C)(C)O (centres unmarked) [DIHYDRO MYRCENOL] | 109.0 | –
6 | CCOC(=O)CC(=O)C12CC3CC(CC(C3)C1)C2 [Example 9, Ethyl-3-(1-adamantyl)-3-oxopropionate] | – | Inhibition ratio (%) (inward current suppression ratio) ([1]; evaluation concentration 0.01%): 45.5%
7 | COc1ccc(C=O)cc1 [ANIS ALDEHYDE] | 89.3 | –
8 | CC(C)(O)CCCC1=CCC(C=O)CC1 (centres unmarked) [LYRAL] | 35.7 | –
9 | CCOC(=O)C12CCCC1C1CCC2C1 (centres unmarked) [FRUIT ATE] | 11.6 | –
10 | O=C(O)CC12CC3CC(CC(C3)C1)C2 [Example 8, 1-Adamantane acetic acid] | – | Inhibition ratio (%) (inward current suppression ratio) ([1]; evaluation concentration 0.04%): 82.5%; Hexanoic acid odor intensity suppression ratio (%) ([2]; test solution 25%): 32%
11 | C1C2CC3CC1CC(C2)C3 [Comparative Example 1, Adamantane] | – | Inhibition ratio (%) (inward current suppression ratio) ([1]; evaluation concentration 0.04%): 10.9%
12 | CC(=O)OC1CCCCC1C(C)(C)C (centres unmarked) [o-t-B.C.H.A] | 23.8 | –
13 | CC12CC3CC(C1)CC(C)(C3)C2 [Comparative Example 2, 1,3-Dimethyladamantane] | – | Inhibition ratio (%) (inward current suppression ratio) ([1]; evaluation concentration 0.01%): 0%
14 | CC(C)=CCC/C(C)=C/CO [GERANIOL] | 90.1 | –
15 | O=C(OCc1ccccc1)c1ccccc1 [BENTHYL BENZOATE] | 10.7 | –
16 | CC(=O)OCCC(C)C [iso-AMYL ACETATE] | 92.0 | –

Row | Compound | Channel suppression ratio (inward current suppression ratio) [1] [%] | other results
17 | C=CC(C)(CCC=C(C)C)OC(C)=O (centres unmarked) [LINALYL ACETATE] | 43.3 | –
18 | CC(C)=CCCC(C)=CC=O [CIT RAL] | 110.6 | –
19 | CC12CC3CC(C)(C1)CC(CO)(C3)C2 [Example 5, 3,5-Dimethyladamantane-1-methanol] | – | Inhibition ratio (%) (inward current suppression ratio) ([1]; evaluation concentration 0.01%): 59.9%; Hexanoic acid odor intensity suppression ratio (%) ([2]; test solution 50%): 28%
20 | CC(=O)C12CC3CC(CC(C3)C1)C2 [Example 7, 1-Adamantylmethyl ketone] | – | Inhibition ratio (%) (inward current suppression ratio) ([1]; evaluation concentration 0.01%): 32%
21 | CC12CCC(CC1)C(C)(C)O2 [1,8-Cineol] | 46.5 | –
22 | CC(=O)NC12CC3CC(CC(C3)C1)C2 [Example 10, 1-Acetamidoadamantane] | – | Inhibition ratio (%) (inward current suppression ratio) ([1]; evaluation concentration 0.01%): 40.6%
23 | O=Cc1ccccc1 [BENZALDEHYDE] | 95.4 | –
24 | CC1=CC(C)C(C=O)CC1 (centres unmarked) [TRIPLAL] | 79.9 | –
25 | CC/C=C\CCO [cis-3-HEXENOL] | 78.7 | –
26 | OCCC12CC3CC(CC(C3)C1)C2 [Example 2, 1-Adamantane ethanol] | – | Inhibition ratio (%) (inward current suppression ratio) ([1]; evaluation concentration 0.04%): 63.4%
27 | OCCc1ccccc1 [PHENYL ETHYL ALCOHOL] | 82.6 | –
28 | NCC12CC3CC(CC(C3)C1)C2 [Example 6, 1-Adamantane methylamine] | – | Inhibition ratio (%) (inward current suppression ratio) ([1]; evaluation concentration 0.01%): 54.5%; Hexanoic acid odor intensity suppression ratio (%) ([2]; test solution 50%): 78%
29 | CC=CC(=O)C1=C(C)CCCC1(C)C [b-DAMASCONE] | 56.1 | Masking score [3]: 2.4
30 | C=CC(C)(O)CCC=C(C)C (centres unmarked) [Linalool] | 106.5 | –
31 | OC12CC3CC(CC(C3)C1)C2 [Example 1, 1-Adamantanol] | – | Inhibition ratio (%) (inward current suppression ratio) ([1]; evaluation concentration 0.04%): 72.4%
